From US20050101640A1 (Recordati Ireland Limited, priority 2002, published 2005)
Marks after values point to notes of the source that are not given here. Blank lines part the entries; values can stand above or below the compound they belong to.

Experiments:
[1] = test system: uninephrectomized anesthetized rats, renal ischemia/reperfusion hypertension; experiment: Model of acute angiotensin-mediated renal hypertension in anesthetized rats (Example VI, with HCTZ); type: in vivo, Sprague-Dawley rats; conditions: for DBP / HR / SBP: mean ± S.E.M.
Description: The animals were tracheotomized to facilitate spontaneous breathing.
Silk threads were placed around both vessels and ureter. The cavity was then covered with Vaseline oil.
Results are expressed as mean values ±S.E in the tables and as mean values ±S.E. and Δ±S.E. changes in the figures.

isolated rat aorta = conditions: in vitro; even after the drug has been removed for 6 hours; cited from earlier work
[2] = test system: uninephrectomized anesthetized rats, renal ischemia/reperfusion hypertension; experiment: Model of acute angiotensin-mediated renal hypertension in anesthetized rats (Example I); conditions: for DBP mean change ± S.D: DBP decrease after 10 minutes from the start of drug administration, lercanidipine 10 μg/kg, lisinopril 30 μg/kg i.v. or both, Anova factorial model; for effect on systolic blood pressure and diastolic blood pressure compared to vehicle (and, for the combination, to either drug alone): lercanidipine 10 μg/kg i.v. or both; for DBP / HR / SBP: mean ± S.E.M.
Description: Male Sprague-Dawley rats, weighing 250-300 g, were anaesthetized with pentobarbital sodium (35 mg/kg, i.p.) and placed on a thermic blanket. The temperature was maintained at 37° C. with a thermoregulator via a rectal probe. The animals were tracheotomized to facilitate spontaneous breathing. A polyethylene catheter was placed in the left jugular vein to allow for infusion of pentobarbital sodium to maintain anesthesia. The left femoral vein and artery were cannulated with polyethylene catheters to allow drugs administration and to monitor blood pressure, respectively.
The animals then underwent a left nephrectomy by excising the left kidney via a flank incision. The right kidney and renal vein, artery and ureter then were exposed via a right retroperitoneal incision, under a dissecting microscope. Silk threads were positioned loosely around both vessels and ureter. The cavity was then covered with Vaseline oil.
After 30-60 minutes of basal recordings of arterial blood pressure and heart rate the threads around the renal vessels and ureter were tied close to the renal hilum to induce complete renal ischemia of the right kidney. After 2 hours of ischemia (designated as “120” in Tables 4-7), the threads were removed to allow renal reperfusion and urine output. […] To evaluate the effects of drugs administration on blood pressure and heart rate, two-way ANOVA and Dunnet's test was used.

[3] = cited from earlier work
[4] = time 0 min, basal, before ischemia and before drug
[5] = time 120 min, end of ischemia, before drug
[6] = time 125 min, 5 min after reperfusion, at drug administration (reference value)
[7] = time 130 min (5 min after i.v. drug), lisinopril+HCTZ 10+12 μg/kg, lercanidipine 7.5 μg/kg or all three
[8] = time 135 min (10 min after i.v. drug), lisinopril+HCTZ 10+12 μg/kg, lercanidipine 7.5 μg/kg or all three
[9] = time 150 min (25 min after i.v. drug), lisinopril+HCTZ 10+12 μg/kg, lercanidipine 7.5 μg/kg or all three
[10] = time 165 min (40 min after i.v. drug), lisinopril+HCTZ 10+12 μg/kg, lercanidipine 7.5 μg/kg or all three
[11] = time 180 min (55 min after i.v. drug), lisinopril+HCTZ 10+12 μg/kg, lercanidipine 7.5 μg/kg or all three
[12] = time 130 min (5 min after i.v. drug), lisinopril 30 μg/kg, lercanidipine 10 μg/kg or both
[13] = time 135 min (10 min after i.v. drug), lisinopril 30 μg/kg, lercanidipine 10 μg/kg or both
[14] = time 150 min (25 min after i.v. drug), lisinopril 30 μg/kg, lercanidipine 10 μg/kg or both
[15] = time 165 min (40 min after i.v. drug), lisinopril 30 μg/kg, lercanidipine 10 μg/kg or both
[16] = time 180 min (55 min after i.v. drug), lisinopril 30 μg/kg, lercanidipine 10 μg/kg or both

- HR [1, 4]: 380.0 ± 17.2 beats/min
- HR [1, 5]: 376.0 ± 17.0 beats/min
- HR [1, 7]: 434.0 ± 26.9 b beats/min
- HR [1, 8]: 448.0 ± 14.4 b beats/min
- HR [1, 9]: 444.0 ± 16.1 b beats/min
- HR [1, 10]: 442.0 ± 20.4 b beats/min
- HR [1, 11]: 434.0 ± 20.9 b beats/min
- HR [2, 4]: 359.6 ± 13.9 beats/min
- HR [2, 5]: 359.3 ± 7.8 beats/min
- HR [2, 6]: 383.6 ± 9.9 beats/min
- HR [2, 12]: 433.1 ± 8.9^b beats/min
- HR [2, 13]: 448.0 ± 6.2^b beats/min
- HR [2, 14]: 443.6 ± 8.2^b beats/min
- HR [2, 15]: 435.5 ± 11.2^b beats/min
- HR [2, 16]: 422.8 ± 12.0^b beats/min
Compound: COC(=O)C1=C(C)NC(C)=C(C(=O)OC(C)(C)CN(C)CCC(c2ccccc2)c2ccccc2)C1c1cccc([N+](=O)[O-])c1 (centres unmarked) [lercanidipine, methyl 1,1,N-trimethyl-N-(3,3-diphenylpropyl)-2-aminoethyl 1,4-dihydro-2,6-dimethyl-4-(3-nitrophenyl)pyridine-3,5-dicarboxylate]
- effect on blood pressure (in words) ([1]; i.v. at peak of reperfusion hypertension, lisinopril+HCTZ 10+12 μg/kg, lercanidipine 7.5 μg/kg or all three): statistically significant decrease in diastolic blood pressure
- effect on heart rate (in words) ([1]; lisinopril+HCTZ 10+12 μg/kg, lercanidipine 7.5 μg/kg i.v. or all three): positive chronotropic effect
- DBP [1, 4]: 82.7 ± 2.7 mmHg
- SBP [1, 4]: 115.0 ± 3.1 mmHg
- DBP [1, 5]: 65.8 ± 4.6 mmHg
- SBP [1, 5]: 103.8 ± 6.4 mmHg
- DBP [1, 6]: 107.0 ± 4.0 mmHg
- SBP [1, 6]: 138.0 ± 4.6 mmHg
- DBP [1, 7]: 87.0 ± 4.3 b mmHg
- SBP [1, 7]: 123.7 ± 3.2 mmHg
- DBP [1, 8]: 86.7 ± 5.0 b mmHg
- SBP [1, 8]: 121.7 ± 4.9 mmHg
- DBP [1, 9]: 86.0 ± 8.2 b mmHg
- SBP [1, 9]: 121.0 ± 7.0 mmHg
- DBP [1, 10]: 78.0 ± 7.6 b mmHg
- SBP [1, 10]: 112.3 ± 6.1 b mmHg
- DBP [1, 11]: 66.3 ± 8.0 b mmHg
- SBP [1, 11]: 99.8 ± 7.2 b mmHg
- isolated rat aorta response to high K+ (isolated rat aorta): attenuated
- DBP mean change ± S.D [2]: 26.13 ± 8.68^a
- effect on systolic blood pressure and diastolic blood pressure compared to vehicle (and, for the combination, to either drug alone) ([2]; lisinopril 30 μg/kg): significant decreases
- DBP [2, 4]: 69.8 ± 2.5 mmHg
- SBP [2, 4]: 110.4 ± 3.6 mmHg
- DBP [2, 5]: 70.6 ± 5.4 mmHg
- SBP [2, 5]: 114.5 ± 6.5 mmHg
- DBP [2, 6]: 119.3 ± 5.2 mmHg
- SBP [2, 6]: 167.6 ± 8.9 mmHg
- DBP [2, 12]: 97.1 ± 3.1^b mmHg
- SBP [2, 12]: 140.4 ± 3.8^b mmHg
- DBP [2, 13]: 93.1 ± 4.0^b mmHg
- SBP [2, 13]: 140.5 ± 3.7^b mmHg
- DBP [2, 14]: 89.5 ± 4.3^b mmHg
- SBP [2, 14]: 139.4 ± 3.7^b mmHg
- DBP [2, 15]: 83.5 ± 4.6^b mmHg
- SBP [2, 15]: 132.0 ± 5.3^b mmHg
- DBP [2, 16]: 78.8 ± 4.0^b mmHg
- SBP [2, 16]: 128.1 ± 4.7^b mmHg
- elimination route ([3]; in vivo): essentially via the hepatic route
- time of peak plasma levels following dosing ([3]; unmodified release oral dosage form): 2 to 3 h

- HR [2, 4]: 393.3 ± 8.8 beats/min
- HR [2, 5]: 390.3 ± 10.0 beats/min
- HR [2, 12]: 408.3 ± 12.3 beats/min
- HR [2, 13]: 405.8 ± 9.7 beats/min
- HR [2, 14]: 406.7 ± 13.1 beats/min
- HR [2, 15]: 406.7 ± 18.2 beats/min
- HR [2, 16]: 400.0 ± 14.6 beats/min
Compound: NCCCC[C@H](N[C@@H](CCc1ccccc1)C(=O)O)C(=O)N1CCC[C@H]1C(=O)O [lisinopril]
- DBP mean change ± S.D [2]: 26.83 ± 4.40^a
- effect on systolic blood pressure and diastolic blood pressure compared to vehicle (and, for the combination, to either drug alone) ([2]; lisinopril 30 μg/kg): significant decreases
- DBP [2, 4]: 73.3 ± 3.2 mmHg
- SBP [2, 4]: 104.2 ± 3.0 mmHg
- DBP [2, 5]: 68.3 ± 2.3 mmHg
- SBP [2, 5]: 99.3 ± 2.4 mmHg
- DBP [2, 6]: 117.3 ± 1.3 mmHg
- SBP [2, 6]: 154.3 ± 3.6 mmHg
- DBP [2, 12]: 92.5 ± 1.0^b mmHg
- SBP [2, 12]: 120.7 ± 1.7^b mmHg
- DBP [2, 13]: 90.5 ± 1.2^b mmHg
- SBP [2, 13]: 119.0 ± 2.1^b mmHg
- DBP [2, 14]: 77.7 ± 4.1^b mmHg
- SBP [2, 14]: 111.0 ± 4.0^b mmHg
- DBP [2, 15]: 64.0 ± 4.8^b mmHg
- SBP [2, 15]: 96.0 ± 6.0^b mmHg
- DBP [2, 16]: 57.3 ± 5.1^b mmHg
- SBP [2, 16]: 90.2 ± 6.8^b mmHg
- time of peak serum concentrations ([3]; following oral administration): ≤ 7 h
